Assay results taken from US6465686B2, “Halogenated 2-amino-5,6 heptenoic acid derivatives useful as nitric oxide synthase inhibitors” (Pharmacia Corporation, priority 2000, dated 2002).
Counter-ions that a name gives are not always drawn.

Key:
[1] = target: T1, human neuronal constitutive NOS (hncNOS) (Homo sapiens, UniProt P29475); experiment: Citrulline assay for nitric oxide synthase, hncNOS; type: biochemical; details: recombinant enzyme, conversion of L-[2,3-3H]-arginine to citrulline, 30 μM L-arginine, calmodulin included
T1 construct: made in house; host or cells: Sf9 insect cells (baculovirus vector)
From the text: (§1) Citrulline Assay for Nitric Oxide Synthase
(§2) Nitric oxide synthase (NOS) activity can be measured by monitoring the conversion of L-[2,3-^3H]-arginine to L-[2,3-^3H]-citrulline (Bredt and Snyder, Proc. Natl. Acad. Sci. U.S.A., 87, 682-685, 1990 and Moore et al, J. Med. Chem., 39, 669-672, 1996). Human inducible NOS (hiNOS), human endothelial constitutive NOS (hecNOS) and human neuronal constitutive NOS (hncNOS) are each cloned from RNA extracted from human tissue. The cDNA for human inducible NOS (hiNOS) is isolated from a λcDNA library made from RNA extracted from a colon sample from a patient with ulcerative colitis. The cDNA for human endothelial constitutive NOS (hecNOS) is isolated from a λcDNA library made from RNA extracted from human umbilical vein endothelial cells (HUVEC) and the cDNA for human neuronal constitutive NOS (hncNOS) is isolated from a λcDNA library made from RNA extracted from human cerebellum obtained from a cadaver. The recombinant enzymes are expressed in Sf9 insect cells using a baculovirus vector (Rodi et al, in The Biology of Nitric Oxide, Pt. 4: Enzymology, Biochemistry and Immunology: Moncada, S., Feelisch, M., Busse, R., Higgs, E., Eds.; Portland Press Ltd.: London, 1995; pp 447-450). Enzyme activity is isolated from soluble cell extracts and partially purified by DEAE-Sepharose chromatography. To measure NOS activity, 10 μL of enzyme is added to 40 μL of 50 mM Tris (pH 7.6) in the presence or absence of test compounds and the reaction initiated by the addition of 50 μL of a reaction mixture containing 50 mM Tris (pH 7.6), 2.0 mg/mL bovine serum albumin, 2.0 mM DTT, 4.0 mM CaCl2, 20 μM FAD, 100 μM tetrahydrobiopterin, 0.4 mM NADPH and 60 μM L-arginine containing 0.9 μCi of L-[2,3-^3H]-arginine. The final concentration of L-arginine in the assay is 30 μM. For hecNOS or hncNOS, calmodulin is included at a final concentration of […]. Following incubation at 37° C. for 15 minutes, the reaction is terminated by addition of 400 μL of a suspension (1 part resin, 3 parts buffer) of Dowex 50W X-8 cation exchange resin in a stop buffer containing 10 mM EGTA, 100 mM HEPES, pH 5.5 and 1 mM L-citrulline. After mixing the resin is allowed to settle and L-[2,3-^3H]-Citrulline formation is determined by counting aliquots of the supernatant with a liquid scintillation counter. Results are reported in Table I as the IC50 values of compounds for hiNOS, hecNOS and hncNOS.

[2] = target: T2, human endothelial constitutive NOS (hecNOS) (Homo sapiens, UniProt P29474); experiment: Citrulline assay for nitric oxide synthase, hecNOS; type: biochemical; details: recombinant enzyme, conversion of L-[2,3-3H]-arginine to citrulline, 30 μM L-arginine, calmodulin included
T2 construct: made in house; host or cells: Sf9 insect cells (baculovirus vector)
From the text: as §1, §2

[3] = target: T3, Human inducible NOS (hiNOS) (Homo sapiens, UniProt P35228); experiment: Citrulline assay for nitric oxide synthase, hiNOS; type: biochemical; details: recombinant enzyme, conversion of L-[2,3-3H]-arginine to citrulline, 30 μM L-arginine
T3 construct: made in house; host or cells: Sf9 insect cells (baculovirus vector)
From the text: as §1, §2

Compound	IC50 [1] [µM]	IC50 [2] [µM]	IC50 [3] [µM]	melting point [°C]
CC(=N)NC/C(F)=C\CC[C@H](N)C(=O)O [Example 1, (2S,5E)-2-amino-6-fluoro-7-[(1-iminoethyl)amino]-5-heptenoic acid, dihydrochloride, monohydrate]	3.6	68	0.36	–
CC(=N)NC/C(F)=C/CC[C@H](N)C(=O)O [Example 4, (2S,5Z)-2-amino-6-fluoro-7-[(1-iminoethyl)amino]-5-heptenoic acid, trihydrochloride, dihydrate]	65	112	8.6	–
CC(=N)NCC(F)=CCC[C@H](N)C(=O)O (mixture of isomers) [Example 2, (2S,5E/Z)-2-amino-6-fluoro-7-[(1-iminoethyl)amino]-5-heptenoic acid, dihydrochloride]	21	195	2.2	–
CC(=N)NC/C(F)=C/CC[C@H](N)C(=O)O [Example 3, (2S,5Z)-2-amino-6-fluoro-7-[(1-iminoethyl)amino]-5-heptenoic acid, dihydrochloride]	105	303	12	–
CC(=N)NC/C(F)=C\CC[C@@H](N)C(=O)O [Example 5, (2R,5E)-2-amino-6-fluoro-7-[(1-iminoethyl)amino]-5-heptenoic acid, dihydrochloride, monohydrate]	29	279	< 5	–
CC(=NO)NC/C(F)=C\CC[C@H](N)C(=O)O [Example 10, (2S,5E)-2-amino-6-fluoro-7-[(1-hydroximinoethyl)amino]-5-heptenoic acid]	–	–	–	198 to 200
